Ten molecules from ChEMBL document CHEMBL1201862, “PubChem BioAssay data set” (2004) can be followed below.

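Test compounds were applied to cells in 96-well plates for 48 hours at 5 doses. GI50 marks 50% less growth.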 Calls of active or inactive are those of the source. Cut-off read from the data, not from the text of the source: active = GI50 up to about 1.1 µM and inactive = higher. Where only a bound is given, the exact number is not on record here.

Common to all, as to experiment: NCI anticancer screen, dose series, 48 h
In assay [1] the test system is 786-0.
Assay [2] concerns CAKI-1.
Assay [3] has as its system CCRF-CEM.
For assay [4], the system named is COLO 205.
The subject of assay [5] is EKVX.
The subject of assay [6] is HCC 2998.
Assay [7] relates to HL-60.
Assay [8] deals with HOP-62.
In assay [9] the test system is HOP-92.
Assay [10] deals with IGROV-1.
In assay [11] the test system is K562.
Assay [12] concerns MCF7.
In assay [13] the test system is MDA-MB-435.
Assay [14] relates to OVCAR-5.
Assay [15] deals with RXF 393.
In assay [16] the test system is SF-539.
Assay [17] relates to SR.
The test system of assay [18] is U-251.
Assay [19] concerns UACC-257.
Assay [20] has as its system UO-31.

In the case of `CC(C)C1C(=O)N(c2c(F)c(F)c(F)c(F)c2F)C(=S)N1CC[S+]([O-])c1ccccc1` (centres undefined), the GI50 was 16.9 µM (inactive) in assay [1]; 5.19 µM (inactive) in [2]; 18.3 µM (inactive) in assay [3]; 15.5 µM (inactive) in [4]; 16.4 µM (inactive) in [5]; 8.47 µM (inactive) in assay [6]. Further, the GI50 was 6.84 µM (inactive) in assay [7]; 23.9 µM (inactive) in assay [8]; 9.77 µM (inactive) in assay [9]; 16.7 µM (inactive) in [10]; 10.8 µM (inactive) in [11]; 16.6 µM (inactive) in assay [12]. For the same molecule, the GI50 was 17.5 µM (inactive) in [13]; 17.7 µM (inactive) in assay [14]; 17.8 µM (inactive) in assay [15]; 19.7 µM (inactive) in assay [16]; 6.22 µM (inactive) in assay [17]; 14.8 µM (inactive) in assay [18]. Further, the values for the GI50 in [19] and in [20] were 20.2 µM (inactive) and 14.8 µM (inactive), respectively.
With `C[C@@H]1S[C@H](c2c(Cl)cccc2Cl)N2Cc3ccccc3N=C12`, the GI50 in [1] is > 100 µM (inactive); in assay [2], > 100 µM (inactive); in assay [3] it was > 100 µM (inactive); in assay [4], > 100 µM (inactive); in assay [5], 42.9 µM (inactive); in assay [6], > 100 µM (inactive). Besides, the GI50 in assay [7] is 48.4 µM (inactive); in assay [8], > 100 µM (inactive); in assay [9] it was > 100 µM (inactive); in assay [10], > 100 µM (inactive); in assay [11], > 100 µM (inactive); in assay [12] it was > 100 µM (inactive). Further, the GI50 in assay [13], in [14], in [15], in assay [16], in [17] and in assay [18] was > 100 µM (inactive) throughout. The GI50 in assay [19] and in assay [20] was > 100 µM (inactive) in each case.
In the case of `C[n+]1cn(-c2ccc([N+](=O)[O-])cn2)c2ccccc21`, the GI50 in assay [1], in assay [2], in assay [3], in assay [4], in assay [5] and in [6] was > 100 µM (inactive) in each case. For the same molecule, the GI50 in assay [7], in [8], in assay [9], in assay [10], in [11] and in assay [12] was > 100 µM (inactive) throughout. Further, the GI50 in [13], in assay [14], in [15], in assay [16], in assay [17] and in assay [18] was > 100 µM (inactive) each time. Moreover, the GI50 in assay [19] and in assay [20] was > 100 µM (inactive) each time.
For the molecule `CCCCCOc1ccc(NC2=C(Cl)C(=O)c3c(O)ccc(O)c3C2=O)cc1`, the GI50 was 1.6 µM (inactive) in [1]; > 10 µM (inactive) in [2]; 3.52 µM (inactive) in assay [3]; 2.63 µM (inactive) in assay [4]; > 10 µM (inactive) in assay [5]; 2.65 µM (inactive) in [6]. For the same molecule, the GI50 in assay [7] is 1.37 µM (inactive); in assay [8], 5.85 µM (inactive); in assay [9], 6.85 µM (inactive); in assay [10], > 10 µM (inactive); in assay [11], 3.27 µM (inactive); in [12], 1.33 µM (inactive). Further, the GI50 was 2.24 µM (inactive) in [13]; > 10 µM (inactive) in assay [14]; 4.71 µM (inactive) in [15]; 6.52 µM (inactive) in [16]; 2.36 µM (inactive) in assay [17]; 6.38 µM (inactive) in [18]. The GI50 was 6.15 µM (inactive) in [19] and 5.26 µM (inactive) in assay [20].
For `COc1cc(/C=C2\C[C@H]3[C@@H]4CC=C5C[C@@H](OC(C)=O)CC[C@]5(C)[C@H]4CC[C@]3(C)\C2=N\O)cc(OC)c1OC`, the GI50 was 5.08 µM (inactive) in [1]; 3.33 µM (inactive) in assay [2]; 4.08 µM (inactive) in assay [3]; 3.76 µM (inactive) in assay [4]; 4.71 µM (inactive) in assay [5]; 16 µM (inactive) in assay [6]. Besides, the GI50 in assay [7] is 2.88 µM (inactive); in [8] it was 13.1 µM (inactive); in [9], 2.59 µM (inactive); in [10], 10 µM (inactive); in assay [11] it was 4.27 µM (inactive); in assay [12] it was 4.2 µM (inactive). The GI50 in assay [13] is 3.82 µM (inactive); in assay [14], 15 µM (inactive); in assay [15], 0.942 µM (active); in [16], 4.33 µM (inactive); in assay [17] it was 3.58 µM (inactive); in [18], 7.41 µM (inactive). Moreover, the GI50 in [19] was 5.74 µM (inactive); in assay [20], 3.86 µM (inactive).
Regarding `CC(C)=CCc1c2c(c(O)c3c(=O)c4c(oc13)-c1ccc(O)cc1OC4C=C(C)C)C=CC(C)(C)O2` (centres undefined), the GI50 in assay [1] was 11.4 µM (inactive); in assay [2] it was 20 µM (inactive); in [3], 3.99 µM (inactive); in [4] it was 21 µM (inactive); in assay [5], 14.9 µM (inactive); in [6] it was 3.34 µM (inactive). For the same molecule, the GI50 is 15.2 µM (inactive) in assay [7]; 14.2 µM (inactive) in [8]; 7.11 µM (inactive) in [9]; 14 µM (inactive) in assay [10]; 8.65 µM (inactive) in assay [11]; 13.5 µM (inactive) in [12]. Besides, the GI50 is 10.6 µM (inactive) in assay [13]; 20.2 µM (inactive) in [14]; 7.29 µM (inactive) in assay [15]; 17.2 µM (inactive) in assay [16]; 5.33 µM (inactive) in assay [17]; 12.2 µM (inactive) in assay [18]. The GI50 in assay [19] was 15.4 µM (inactive); in assay [20], 18.3 µM (inactive).
On to `CC(=O)OC[C@@]12Cc3ccc(C)c(O)c3[C@]1(C)[C@@H](OC(C)=O)[C@]1(O)[C@H]([C@@H](OC(=O)c3ccccc3)[C@@H](C)[C@H]1OC(C)=O)[C@H]2OC(C)=O`, for which the GI50 in assay [1] was > 50 µM (inactive); in [2], > 50 µM (inactive); in assay [3] it was > 50 µM (inactive); in assay [4], > 50 µM (inactive); in [5], > 50 µM (inactive); in assay [6], 22 µM (inactive). The GI50 in assay [7] was 44.9 µM (inactive); in assay [8], > 50 µM (inactive); in [9], > 50 µM (inactive); in [10] it was > 50 µM (inactive); in assay [11], > 50 µM (inactive); in [12] it was > 50 µM (inactive). Besides, the GI50 in assay [13], in assay [14], in assay [15], in assay [16], in assay [17] and in assay [18] was > 50 µM (inactive) throughout. Also, the GI50 in [19] and in assay [20] was > 50 µM (inactive) throughout.
With `N#CC(C#N)SCc1ccccc1`, the GI50 in [1] was 15.7 µM (inactive); in assay [2] it was 17.7 µM (inactive); in assay [3], 1.7 µM (inactive); in assay [4], 15.6 µM (inactive); in assay [5] it was > 96.2 µM (inactive); in assay [6] it was 61.2 µM (inactive). The GI50 in assay [7] is 4.44 µM (inactive); in assay [8], 15.7 µM (inactive); in assay [9], 15.5 µM (inactive); in [10] it was 23.1 µM (inactive); in [11] it was 1.12 µM (inactive); in assay [12], 4.55 µM (inactive). The GI50 was 17.6 µM (inactive) in [13]; 17.3 µM (inactive) in [14]; 26.8 µM (inactive) in assay [15]; 5.19 µM (inactive) in assay [16]; 1.11 µM (active) in [17]; 19.5 µM (inactive) in assay [18]. Besides, the GI50 in assay [19] was 23.1 µM (inactive); in assay [20], 20.1 µM (inactive).
Consider `Nc1nc(Cl)cc(NC2(CO)CCC2)n1`, for which the GI50 in assay [1] was > 100 µM (inactive); in assay [2] it was 89.5 µM (inactive); in assay [3], > 100 µM (inactive); in assay [4], > 100 µM (inactive); in assay [5], > 100 µM (inactive); in [6], > 100 µM (inactive). In addition, the GI50 in assay [7], in assay [8], in assay [9], in assay [10], in [11] and in assay [12] was > 100 µM (inactive) each time. Moreover, the GI50 in assay [13], in assay [14], in [15], in [16], in assay [17] and in assay [18] was > 100 µM (inactive) each time. In addition, the GI50 in assay [19] and in [20] was > 100 µM (inactive) each time.
On to `COc1c(/C=C/C=O)cc2c(c1OC)OCO2`, for which the GI50 in assay [1] is 54.1 µM (inactive); in [2] it was 5.21 µM (inactive); in assay [3], 22.1 µM (inactive); in [4] it was > 100 µM (inactive); in assay [5], 55.3 µM (inactive); in [6], 29.4 µM (inactive). Besides, the GI50 in assay [7] was 23.6 µM (inactive); in assay [8] it was 25.5 µM (inactive); in [9], 61.5 µM (inactive); in assay [10], 22.8 µM (inactive); in assay [12], 28 µM (inactive); in [13], 49.3 µM (inactive). The GI50 is 7.41 µM (inactive) in assay [14]; > 100 µM (inactive) in assay [15]; 35 µM (inactive) in assay [16]; 12.9 µM (inactive) in assay [17]; 23.2 µM (inactive) in assay [18]; 48.1 µM (inactive) in assay [19]. Also, the GI50 in [20] was 35.9 µM (inactive).
